The values that follow come from patent US7355033B2, “Screening for West Nile Virus antiviral therapy” (Health Research, Inc., priority 2002, dated 2008).

Assay [1] relates to lineage I WNV replicon (Rluc/NeoRep). The assay can be described thus: Rluc activity in BHK-21 reporting cell line containing WNV Rluc/NeoRep replicon. The class given is cell-based. The settings on record: West Nile virus, 24 h compound treatment, 12-well plates, estimated from Rluc curves, read-out: EC50 (compound concentration required to inhibit 50% of the Rluc activity). The procedure: (§1) To test the stability of the replicon-containing cell lines, cells at various time points post-selection (p.s.) were examined for viral and Rluc protein expression, and for replicon RNA copy numbers. […] (lower two panels in FIG. 18B). […] (ii) Stable and high levels of Rluc activity were detected from cells collected on days 20, 50, and 80 p.s. (FIG. 18C). For Rluc assay, 10^6 cells were lysed in 500 microliters of lysis buffer; 20 microliters of lysate was measured for Rluc activity according to the manufacturer (Promega) using a Lumat luminometer (EG & G, Berthold, Australia). Approximately 8×10^6 light units were consistently detected from 4×10^4 cells, about 200 light units per cell. (iii) A consistent level of replicon RNA was maintained in cells at 20, 50, and 80 days p.s. (FIG. 18D). Real-time RT-PCR, targeting the viral NS1 region, was used to quantify replicon RNA as previously reported (Shi, P. Y., et al. 2002. Virology 296:219-233; Shi, P. Y., et al. 2002. J. Virol. 76:5847-56; Lo, M. K., et al. 2003. J. Virology 77, 12901-12906). Total RNA extracted from 10^6 cells was eluted in 50 microliters of RNase-free water using RNeasy kits (Qiagen); 5 microliters of RNA was quantified by real-time RT-PCR, using in vitro trancribed RNA as standards. About 10^9 replicon molecules in 10^5 cells was estimated, or about 10^4 replicon RNAs per cell.
To examine whether the reporting cell line can be used as an antiviral assay, three known WNV inhibitors were tested in the cells: 6-azauridine, an inhibitor of orotidine monophosphate decarboxylase, and mycophenolic acid and ribavirin, inhibitors of inosine monophosphate dehydrogenase (De Clercq, E. 1993. Advance Virus Res. 42:1-55; Jordan, I., et al. 2000. J. Infect. Dis. 182:1214-7; Morrey, J., et al. 2002. Antiviral Res. 55:107-116). Ribavirin has also been reported to function as a mutagen, causing lethal levels of mutagenesis within the virus population (Crotty, S., et al. 2000. Nature Med. 6:1375-9). All three compounds were purchased from Sigma (St. Louis, Mo.). Initially, the assay was performed in 12-well plates. […]

In assay [2] the test system is lineage I WNV replicon (Rluc/NeoRep) RNA. Description: Replicon RNA copy number by real-time RT-PCR in Rluc/NeoRep reporting cell line. The class given is cell-based. The settings on record: West Nile virus, 24 h, read-out: EC50 derived from the replicon RNA copy numbers. The procedure:
as §1
To verify that the reduction in Rluc activity reflected the compound inhibition of viral RNA replication, RT-PCR was performed. After 24 h of compound treatment, cells from the 12-well plates were assayed for RNA amounts as described above, except that 12 μl from the 50 μl extracted RNA was used in the real-time RT-PCR assay. […] The relative potencies of the three tested compounds are also similar to those observed with the Rluc results, in the decreasing order of mycophenolic acid, 6-azauridine, and ribavirin (compare FIGS. 19A to 19B). […]
In general terms: In antiviral work, replicon cells carry a viral genome segment that copies itself.

Assay [3] relates to WNV. The settings on record: Morrey et al. 2002; read-out: EC50 derived from the standard viral infection assay; cited from earlier work.

Turning to `COc1c(C)c2c(c(O)c1C/C=C(\C)CCC(=O)O)C(=O)OC2` [mycophenolic acid], the results for the EC50 in assay [1], in assay [2] and in assay [3] were 5.4 µM, about 100 µM and 8.4 µM, respectively.
On to `O=c1cnn([C@@H]2O[C@H](CO)[C@@H](O)[C@H]2O)c(=O)[nH]1` [6-azauridine], for which the results for the EC50 in assay [1], in assay [2] and in assay [3] were 11 µM, over 300 µM and 6.1 µM, respectively.
As to `NC(=O)c1ncn([C@@H]2O[C@H](CO)[C@@H](O)[C@H]2O)n1` [ribavirin], the EC50 in assay [1] was 140 µM; in assay [2], over 300 µM; in assay [3], 178 µM.
